Reference: PubChem BioAssay (NCI)
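Briefly, cells in 96-well plates were exposed to five compound concentrations for 48 h, and endpoints were estimated by linear interpolation. GI50: concentration for 50% inhibition of growth. TGI marks complete inhibition of growth.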

Experiments:
Experiment in all cases: DTP human tumour cell line panel, 48 h
SF-295 CNS = test system: SF-295 CNS
786-0 renal = test system: 786-0 renal
SW-620 colon = test system: SW-620 colon
HCT-116 colon = test system: HCT-116 colon
HCT-15 colon = test system: HCT-15 colon
MOLT-4 leukemia = test system: MOLT-4 leukemia
NCI-H460 lung = test system: NCI-H460 lung
A498 renal = test system: A498 renal
SF-268 CNS = test system: SF-268 CNS
NCI/ADR-RES ovarian = test system: NCI/ADR-RES ovarian
SK-MEL-2 melanoma = test system: SK-MEL-2 melanoma
HOP-62 NSCLC = test system: HOP-62 NSCLC
OVCAR-5 ovarian = test system: OVCAR-5 ovarian
SNB-75 CNS = test system: SNB-75 CNS
HCC-2998 colon = test system: HCC-2998 colon
MDA-MB-231 breast = test system: MDA-MB-231 breast
A549 NSCLC = test system: A549 NSCLC
MDA-N = test system: MDA-N

| Structure (SMILES) | TGI (SF-295 CNS) [µM] | TGI (786-0 renal) [µM] | TGI (SW-620 colon) [µM] | TGI (HCT-116 colon) [µM] | TGI (HCT-15 colon) [µM] | TGI (MOLT-4 leukemia) [µM] | TGI (NCI-H460 lung) [µM] | TGI (A498 renal) [µM] | TGI (SF-268 CNS) [µM] | TGI (NCI/ADR-RES ovarian) [µM] | TGI (SK-MEL-2 melanoma) [µM] | TGI (HOP-62 NSCLC) [µM] | TGI (OVCAR-5 ovarian) [µM] | TGI (SNB-75 CNS) [µM] | TGI (HCC-2998 colon) [µM] | TGI (MDA-MB-231 breast) [µM] | TGI (A549 NSCLC) [µM] | TGI (MDA-N) [µM] | GI50 (SF-295 CNS) [µM] | GI50 (SF-268 CNS) [µM] |
| --- | --- | --- | --- | --- | --- | --- | --- | --- | --- | --- | --- | --- | --- | --- | --- | --- | --- | --- | --- | --- |
| COc1ccc(Cc2nnc(Nc3ccc(Br)cc3)[nH]c2=O)cc1OC | > 100 | > 100 | > 100 | > 100 | > 100 | > 100 | > 100 | > 100 | > 100 | > 100 | > 100 | > 95.8 | > 100 | > 100 | > 100 | > 100 | > 100 | – | – | – |
| CC(C)N=C(N)NC#N | > 100 | – | > 100 | > 100 | > 100 | > 100 | > 100 | > 100 | > 100 | – | > 100 | > 100 | > 100 | > 100 | > 100 | – | > 100 | – | – | – |
| CC(C)NC(=O)OCc1c(CO)c2c(n1C)-c1ccccc1CC2 | > 100 | – | 38.8 | 34 | 54.6 | 48.9 | 67.7 | > 100 | > 100 | 61.4 | > 100 | > 93.3 | > 100 | > 100 | 57.4 | – | > 100 | – | – | – |
| CSc1nc(NC2OC(COC(C)=O)C(OC(C)=O)C(OC(C)=O)C2OC(C)=O)c2c(n1)OCC2=O (centres undefined) | > 100 | > 100 | > 100 | > 100 | > 100 | > 100 | > 100 | > 100 | > 100 | – | > 100 | > 100 | > 100 | > 100 | – | – | > 100 | – | – | – |
| Cc1c(N2CCN(C)CC2)nc2ccc(Cl)cc2c1-c1ccccc1 | 31.2 | 27.9 | 34.6 | 40 | 40.7 | > 10 | 33.4 | 25.3 | > 100 | – | 36.5 | 36.6 | – | 36.5 | > 10 | – | 36.9 | – | – | – |
| CC(=O)Nc1ccc2c3c(cc(O)c2c1)N(C(=O)CCCCCCC(=O)N1CC(CCl)c2c1cc(O)c1cc(NC(C)=O)ccc21)CC3CCl (centres undefined) | 3.19 | 0.0204 | > 100 | – | 3.59 | – | – | < 0.01 | 0.464 | > 74.6 | < 0.01 | – | 0.243 | < 0.01 | – | – | > 100 | – | – | – |
| Cc1cc(Cc2cc(C)c(NC(=O)C(=O)C3CCC4=C(SC5C=CC=CC5N4)C3=O)c(C(C)C)c2)cc(C(C)C)c1NC(=O)C(=O)C1CCC2=C(SC3C=CC=CC3N2)C1=O (centres undefined) | > 100 | > 100 | > 100 | > 100 | > 100 | > 100 | > 100 | > 100 | > 100 | > 100 | > 100 | > 100 | > 100 | > 100 | > 100 | > 100 | > 100 | – | – | – |
| CCC(=O)Nc1ccc(NC(C#N)c2cccc(Oc3ccccc3)c2)cc1 (centres undefined) | > 100 | > 100 | > 100 | > 100 | > 100 | 36 | – | > 100 | > 100 | > 100 | 94.6 | > 100 | > 100 | > 100 | – | – | > 100 | > 100 | – | – |
| CC1=C(O)C(=O)C2C(=O)C1C1Cc3ccccc3C21 (centres undefined) | > 100 | > 100 | > 100 | – | > 100 | > 100 | – | > 100 | > 100 | – | > 100 | > 100 | > 100 | > 100 | > 100 | – | > 100 | – | – | – |
| Cc1ccc(O)c(C2=CC(c3cccc(Cl)c3)SC(N)=N2)c1 (centres undefined) | 36.9 | > 100 | 65.9 | 39.7 | 38.2 | 61.4 | 64 | – | > 100 | > 100 | 38.2 | 64.1 | 73.5 | – | 33.4 | – | 62.9 | 39.7 | – | – |
| COC1CC(COCc2ccccc2)CC(OC)O1 (centres undefined) | > 100 | > 100 | > 100 | > 100 | > 100 | > 100 | > 100 | > 100 | > 100 | > 100 | – | > 100 | > 100 | > 100 | > 100 | – | > 100 | > 100 | – | – |
| COc1ccc(CCCNC(=O)c2cc(OC)c(OC)cc2CCO)cc1OC | > 100 | > 100 | > 100 | > 100 | > 100 | > 100 | > 100 | > 100 | > 100 | > 100 | > 100 | > 100 | > 100 | > 100 | > 100 | > 100 | > 100 | – | – | – |
| COc1ccccc1-c1cc(=O)c2cc3c(cc2[nH]1)OCO3 | 62.6 | > 100 | > 100 | > 100 | > 100 | > 100 | > 100 | 62.4 | > 100 | – | > 100 | > 100 | – | > 100 | > 100 | – | > 100 | – | 21.1 | 64.5 |
